Drawing on PMC7554656 (Molecular Metabolism, 2020), this text covers EC50 for 1 molecule.

A word on the EC50: it is the concentration at which the effect is half-maximal. A high value points to lower potency in that assay.

This assay addresses T1, SGLT2 (sodium-glucose cotransporter 2) (Homo sapiens, UniProt P31639).
T1 sequence (P31639 1-672): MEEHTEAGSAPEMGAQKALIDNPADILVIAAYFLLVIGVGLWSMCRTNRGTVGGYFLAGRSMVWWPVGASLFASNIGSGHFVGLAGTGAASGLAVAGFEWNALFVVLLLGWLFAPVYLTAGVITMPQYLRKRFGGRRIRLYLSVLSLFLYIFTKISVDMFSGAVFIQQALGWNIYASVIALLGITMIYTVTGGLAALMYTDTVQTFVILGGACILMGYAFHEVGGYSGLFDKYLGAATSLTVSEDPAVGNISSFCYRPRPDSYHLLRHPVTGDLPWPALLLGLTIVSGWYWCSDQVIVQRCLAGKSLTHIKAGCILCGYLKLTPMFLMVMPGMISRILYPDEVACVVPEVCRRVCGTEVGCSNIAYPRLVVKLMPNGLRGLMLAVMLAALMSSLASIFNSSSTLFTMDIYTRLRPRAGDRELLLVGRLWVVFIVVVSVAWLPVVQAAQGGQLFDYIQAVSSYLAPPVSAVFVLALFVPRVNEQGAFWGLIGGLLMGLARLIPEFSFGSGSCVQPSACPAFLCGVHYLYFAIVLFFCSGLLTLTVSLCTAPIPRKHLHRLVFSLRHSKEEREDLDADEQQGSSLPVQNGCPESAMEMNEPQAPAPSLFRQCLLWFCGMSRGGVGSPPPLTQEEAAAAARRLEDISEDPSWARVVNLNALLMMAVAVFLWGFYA
In words: inhibition of […]-alpha-methyl-D-glucopyranoside uptake in HEK293-hSGLT2 cells. It counts as cell-based.

Molecule `OC[C@H]1O[C@@H](c2ccc(Cl)c(Cc3ccc(O[C@H]4CCOC4)cc3)c2)[C@H](O)[C@@H](O)[C@@H]1O` [empagliflozin] gave an EC50 of 4.3 nM.
